Test results as given in article PMC7232244, “Aspartic Acid Isomerization Characterized by High Definition Mass Spectrometry Significantly Alters the Bioactivity of a Novel Toxin from Poecilotheria” (Toxins, 2020).
Numbered stars: 1 amine (or outer) side, 2 acyl side, 3 side chain; on linkers, the order of the positions; unused ones are H or OH. Bridge positions count the residues as written; N and C are the ends. Square brackets hold non-standard residues; d marks the D form. Peptide text beside a SMILES is read from it. βAsp = O=C(O)[C@H](CC(=O)[*:2])N[*:1]

Type: physicochemical
Settings: chromatographic, reversed-phase UPLC BEH C18, 0.10% formic acid/acetonitrile gradient; P. vittata venom (Figure 3A); taken as increased solubility / loss of hydrophobicity
From the text: We used an iterative series of analytical processes to identify potential peptide modulators for neuronal activity and subsequently identified their primary structure, including PTMs, that may alter their efficacy and potency. In the initial phase of toxin selection, venom from Poecilotheria were collected and screened by HDMS^E. The venom was a complex mixture of molecules with a high percentage of proteinaceous materials ranging from 3–6 kDa with an average venom yield from 50 collections (five from each of the ten species) of ~148 ± 12 μg of total protein per μL of venom as determined by conventional Bradford assay (data not shown). An analytical screening of each venom was performed for preliminary compound identification and any PTMs, e.g., isobaric conformations. 100 μg of lyophilized venom from each species of Poecilotheria were suspended in 1 mL of the initial mobile phase and a 1 μL aliquot injection was made into an UPLC coupled to a HDMS. […]
In order to calculate the molecular mass, we deconvoluted the charge envelope of each peptide using high-resolution mass spectrometry MS scans (“MS” in HDMS^E). […] The molecular monoisotopic masses of PcaTX-1a and PcaTX-1b were determined to be 4024.710 Da and 4024.709 Da, respectively (Figure 3B,C). […]

CC(C)C[C@@H]1NC(=O)[C@H](Cc2c[nH]cn2)NC(=O)[C@H](CCCCN)NC(=O)[C@@H]2CSSC[C@H](NC(=O)CNC(=O)[C@H](C)N)C(=O)N[C@@H](CCCCN)C(=O)N[C@@H](Cc3ccc(O)cc3)C(=O)N[C@@H](CC(C)C)C(=O)N[C@@H](Cc3ccccc3)C(=O)NCC(=O)N[C@@H](CO)C(=O)N[C@H]3CSSC[C@H](NC(=O)CNC1=O)C(=O)N[C@@H](CCCNC(=N)N)C(=O)N[C@@H](CCCNC(=N)N)C(=O)N[C@@H](CCCCN)C(=O)N[C@@H](C)C(=O)N1CCC[C@H]1C(=O)N[C@@H](CCC(N)=O)C(=O)N[C@@H](Cc1ccc(O)cc1)C(=O)N[C@H](C(=O)NCC(=O)N[C@@H](Cc1c[nH]c4ccccc14)C(=O)N[C@@H](CC(=O)NCC(=O)N[C@H](C(=O)N[C@@H](Cc1ccccc1)C(N)=O)[C@@H](C)O)C(=O)O)CSSC[C@H](NC(=O)[C@H](CC(=O)O)NC(=O)[C@H](CO)NC(=O)[C@H](CC(=O)O)NC(=O)[C@H](CCC(=O)O)NC(=O)[C@H](CCCCN)NC3=O)C(=O)N2 [PcaTX-1a] (H-AGCKYLFGSCKEDSDCCKHLGCRRKAPQYCGW[βAsp]GTF-NH2; disulfide 3-17, 10-22, 16-30)
decrease of partition coefficient (k') as compared to PcaTX-1b: 9.3%
